Assay results: patent US20260234140A1, “PYRIDOPYRIMIDINE DERIVATIVE AND USE THEREOF” (SUNSHINE LAKE PHARMA CO., LTD., priority 2023, published 2026)

Test system: PD1/PD-L1 pathway
Assay: PD1/PD-L1 Blockade Bioassay, inhibition of the PD1/PD-L1 pathway at the cellular level (luciferase reporter, PD-1 Jukat T cells co-cultured with PD-L1 aAPC/CHO-K1 cells)
Type: cell-based
Settings: T-cell; for EC50: PD-1 Jukat T cells + PD-L1 aAPC/CHO-K1 cells, 6 h co-culture, ONE-Glo luciferase readout; for Emax: maximum % Activity relative to atezolizumab (set to 100%)
Experimental: Experiment 1: Detecting the Inhibitory Activity of Compounds on the PD1/PD-L1 Pathway at the Cellular Level Using the PD1/PD-L1 Blockade Bioassay Method
PD-1 Jukat T cells were revived and cultured with 1640 medium containing 100 μg/mL Hygromycin B, […] Puromycin, 10% FBS and 1% dual antibody; PD-L1 aAPC/CHO-K1 cells were revived and cultured with F12K medium containing 100 μg/mL Hygromycin B, 200 μg/mL G418, 10% FBS and 1% dual antibody.
The revived cells need to be passaged 2-3 times. When the cells enter the exponential growth phase with good growth status, the PD-L1 aAPC/CHO-K1 was digested with trypsin, and the cells were resuspended in F12K containing 5% FBS and adjusted to a density of 5×10^5 cells/mL. 20 μl/well were plated in a 384-well plate (10,000 cells/well) and incubated in an incubator overnight for 16-20 h.
a Preparation of compound stock solution: Dissolve the compound to be tested in DMSO to prepare a 20 mM stock solution.
b Compound gradient dilution: dilute the compound in 1640 medium containing 5% FBS without antibiotics or phenol red, and make 3-fold gradient dilutions to prepare 10 concentration gradients (2×).
c Adding drugs: Take out the cell culture plate, discard the supernatant, add 20 μl/well of the prepared compound, and incubate in the incubator for 1.5 h.
PD-1 Jukat T cells were collected, washed once with PBS, and resuspended in 1640 medium containing 5% FBS without antibiotics or phenol red. The density was adjusted to 1×10^6 cells/mL. 20 μl PD-1 Jukat T cells (20,000 cells/well) were added to each well and incubated in the incubator for 6 h.
ONE-Glo™ Luciferase Assay reagent was thawed to room temperature in advance and then added to a 384-well plate at 40 µl/well. Incubate in the dark for 15 minutes and read the […] signal on a plate reader.
[formula] • Among them, % Activity: % Activity • RLU: Resulting Luminescence unit • RLUvehicle: Average RLU value of negative control wells on each plate • RLUpositive: Average RLU value of positive control wells on each plate • Vehicle control: DMSO (0.1%) corresponding to the test value was used as negative control (its % Activity was 0%); • Positive control: The highest detection value at the atezolizumab administration concentration was used as the positive control (its % Activity was 100%). • (2) EC50 value calculation method: The EC50 value was obtained by the nonlinear fitting formula of Graph Pad Prism 8.0 software. The calculation formula is as follows:
Y=Bottom+(Top−Bottom)/(1+10^((Log EC50−X)×HillSlope)) • X: log of activator concentration (logarithm of compound concentration); Y: % Activity • (3) Emax definition: The maximum % Activity value corresponding to the maximum activation value of the compound relative to atezolizumab (the activation value is set to 100%).

SMILES: COc1nc(-c2cccc(-c3cccc(Nc4nc(C(F)F)nc5cc(CN6CC[C@H](O)C6)cnc45)c3C)c2Cl)cnc1CN1CC[C@H](O)C1 [Example 50, (S)-1-((5-(2-chloro-3′-((2-(difluoromethyl)-7-(((S)-3-hydroxypyrrolidin-1-yl)methyl)pyrido[3,2-d]pyrimidin-4-yl)amino)-2′-methyl-[1,1′-biphenyl]-3-yl)-3-methoxypyrazin-2-yl)methyl)pyrrolidin-3-ol]
- EC50: 99.1 nM
- Emax: 96%

SMILES: COc1nc(-c2cccc(-c3cccc(Nc4nc(C(F)F)nc5cc(CN6CC[C@@](C)(O)C6)cnc45)c3C)c2Cl)cnc1CN(C)[C@H]1CC[C@H](C(=O)O)CC1 [Example 29, (1r,4r)-4-(((5-(2-chloro-3′-((2-(difluoromethyl)-7-(((R)-3-hydroxy-3-methylpyrrolidin-1-yl)methyl)pyrido[3,2-d]pyrimidin-4-yl)amino)-2′-methyl-[1,1′-biphenyl]-3-yl)-3-methoxypyrazin-2-yl)methyl)(methyl)amino)cyclohexane-1-carboxylic acid]
- EC50: 42.9 nM
- Emax: 89%

SMILES: O=C(O)C1CCN(Cc2ccnc(Nc3cccc(-c4cccc(Nc5nc(C(F)F)nc6cc(CN7CC[C@@H](O)C7)cnc56)c4Cl)c3Cl)c2F)CC1 [Example 36, (R)-1-((2-((2,2′-dichloro-3′-((2-(difluoromethyl)-7-((3-hydroxypyrrolidin-1-yl)methyl)pyrido[3,2-d]pyrimidin-4-yl)amino)-[1,1′-biphenyl]-3-yl)amino)-3-fluoropyridin-4-yl)methyl)piperidine-4-carboxylic acid]
- EC50: 55.5 nM
- Emax: 85%

SMILES: COc1nc(-c2cccc(-c3cccc(Nc4nc(C(F)F)nc5cc(CN6CC[C@](C)(O)C6)cnc45)c3C)c2Cl)cnc1CN(C)[C@H]1CC[C@H](C(=O)O)CC1 [Example 46, (1r,4r)-4-(((5-(2-chloro-3′-((2-(difluoromethyl)-7-(((S)-3-hydroxy-3-methylpyrrolidin-1-yl)methyl)pyrido[3,2-d]pyrimidin-4-yl)amino)-2′-methyl-[1,1′-biphenyl]-3-yl)-3-methoxypyrazin-2-yl)methyl)(methyl)amino)cyclohexane-1-carboxylic acid]
- EC50: 60.7 nM
- Emax: 86.7%

SMILES: [2H]C([2H])([2H])N(Cc1ncc(-c2cccc(-c3cccc(Nc4nc(C(F)F)nc5cc(CN6CC[C@@H](O)C6)cnc45)c3C)c2Cl)nc1OC)[C@H]1CC[C@H](C(=O)O)CC1 [Example 32, (1r,4r)-4-(((5-(2-chloro-3′-((2-(difluoromethyl)-7-(((R)-3-hydroxypyrrolidin-1-yl)methyl)pyrido[3,2-d]pyrimidin-4-yl)amino)-2′-methyl-[1,1′-biphenyl]-3-yl)-3-methoxypyrazin-2-yl)methyl)(methyl-d3)amino)cyclohexane-1-carboxylic acid]
- EC50: 76.3 nM
- Emax: 84.1%

SMILES: [2H]C([2H])([2H])N(Cc1ccc(-c2cccc(-c3cccc(Nc4nc(C(F)F)nc5cc(CN6CC[C@@H](O)C6)cnc45)c3C)c2Cl)nc1OC)[C@H]1CC[C@H](C(=O)O)CC1 [Example 13, (1r,4r)-4-(((6-(2-chloro-3′-((2-(difluoromethyl)-7-(((R)-3-hydroxypyrrolidin-1-yl)methyl)pyrido[3,2-d]pyrimidin-4-yl)amino)-2′-methyl-[1,1′-biphenyl]-3-yl)-2-methoxypyridin-3-yl)methyl)(methyl-d3)amino)cyclohexane-1-carboxylic acid]
- EC50: 38.2 nM
- Emax: 104%

SMILES: COc1nc(-c2cccc(-c3cccc(Nc4nc(C(F)F)nc5cc(CN6CC[C@@H](O)C6)cnc45)c3C)c2Cl)ccc1CN[C@H]1CC[C@H](C(=O)O)CC1 [Example 2, (1r,4r)-4-(((6-(2-chloro-3′-((2-(difluoromethyl)-7-(((R)-3-hydroxypyrrolidin-1-yl)methyl)pyrido[3,2-d]pyrimidin-4-yl)amino)-2′-methyl-[1,1′-biphenyl]-3-yl)-2-methoxypyridin-3-yl)methyl)amino)cyclohexane-1-carboxylic acid]
- EC50: 98.3 nM
- Emax: 118%

SMILES: COc1nc(-c2cccc(-c3cccc(Nc4nc(C(F)F)nc5cc(CN6CC[C@H]([C@@H](C)O)C6)cnc45)c3C)c2Cl)cnc1CN(C)[C@H]1CC[C@H](C(=O)O)CC1 [Example 44, (1r,4r)-4-(((5-(2-chloro-3′-((2-(difluoromethyl)-7-(((S)-3-((R)-1-hydroxyethyl)pyrrolidin-1-yl)methyl)pyrido[3,2-d]pyrimidin-4-yl)amino)-2′-methyl-[1,1′-biphenyl]-3-yl)-3-methoxypyrazin-2-yl)methyl)(methyl)amino)cyclohexane-1-carboxylic acid]
- EC50: 84.5 nM
- Emax: 69%

SMILES: COc1nc(-c2cccc(-c3cccc(Nc4nc(C(F)F)nc5cc(CN6CC[C@@H](O)C6)cnc45)c3C)c2Cl)ccc1CN(C)CC12CCC(C(=O)O)(CC1)C2 [Example 10, (R)-4-((((6-(2-chloro-3′-((2-(difluoromethyl)-7-((3-hydroxypyrrolidin-1-yl)methyl)pyrido[3,2-d]pyrimidin-4-yl)amino)-2′-methyl-[1,1′-biphenyl]-3-yl)-2-methoxypyridin-3-yl)methyl)(methyl)amino)methyl)bicyclo[2.2.1]heptane-1-carboxylic acid]
- EC50: 70.7 nM
- Emax: 79.3%

SMILES: COc1nc(-c2cccc(-c3cccc(Nc4nc(C(F)F)nc5cc(CN6CC[C@H](CO)C6)cnc45)c3C)c2Cl)cnc1CN(C)[C@H]1CC[C@H](C(=O)O)CC1 [Example 28, (1r,4r)-4-(((5-(2-chloro-3′-((2-(difluoromethyl)-7-(((S)-3-(hydroxymethyl)pyrrolidin-1-yl)methyl)pyrido[3,2-d]pyrimidin-4-yl)amino)-2′-methyl-[1,1′-biphenyl]-3-yl)-3-methoxypyrazin-2-yl)methyl)(methyl)amino)cyclohexane-1-carboxylic acid]
- EC50: 49.5 nM
- Emax: 95%

SMILES: COc1nc(-c2cccc(-c3cccc(Nc4nc(C(F)F)nc5cc(CN6CC[C@@H](O)C6)cnc45)c3C)c2Cl)cnc1CN1CCC(C(=O)O)CC1 [Example 15, (R)-1-((5-(2-chloro-3′-((2-(difluoromethyl)-7-((3-hydroxypyrrolidin-1-yl)methyl)pyrido[3,2-d]pyrimidin-4-yl)amino)-2′-methyl-[1,1′-biphenyl]-3-yl)-3-methoxypyrazin-2-yl)methyl)piperidine-4-carboxylic acid]
- EC50: 41.8 nM
- Emax: 97%

SMILES: COc1nc(-c2cccc(-c3cccc(Nc4nc(C(F)F)nc5cc(CN6CC[C@@H](O)C6)cnc45)c3C)c2Cl)cnc1CN(C)C[C@H]1CC[C@H](C(=O)O)CC1 [Example 14, (1r,4r)-4-((((5-(2-chloro-3′-((2-(difluoromethyl)-7-(((R)-3-hydroxypyrrolidin-1-yl)methyl)pyrido[3,2-d]pyrimidin-4-yl)amino)-2′-methyl-[1,1′-biphenyl]-3-yl)-3-methoxypyrazin-2-yl)methyl)(methyl)amino)methyl)cyclohexane-1-carboxylic acid]
- EC50: 31.3 nM
- Emax: 103%

SMILES: COc1nc(-c2cccc(-c3cccc(Nc4nc(C(F)F)nc5cc(CN6CC[C@@H](OC(F)F)C6)cnc45)c3C)c2Cl)cnc1CN(C)[C@H]1CC[C@H](C(=O)O)CC1 [Example 42, (1r,4r)-4-(((5-(2-chloro-3′-((7-(((R)-3-(difluoromethoxy)pyrrolidin-1-yl)methyl)-2-(difluoromethyl)pyrido[3,2-d]pyrimidin-4-yl)amino)-2′-methyl-[1,1′-biphenyl]-3-yl)-3-methoxypyrazin-2-yl)methyl)(methyl)amino)cyclohexane-1-carboxylic acid]
- EC50: 90.9 nM
- Emax: 74%

SMILES: COc1nc(-c2cccc(-c3cccc(Nc4nc(C(F)F)nc5cc(CN6CCC(O)CC6)cnc45)c3C)c2Cl)cnc1CN(C)[C@H]1CC[C@H](C(=O)O)CC1 [Example 21, (1r,4r)-4-(((5-(2-chloro-3′-((2-(difluoromethyl)-7-((4-hydroxypiperidin-1-yl)methyl)pyrido[3,2-d]pyrimidin-4-yl)amino)-2′-methyl-[1,1′-biphenyl]-3-yl)-3-methoxypyrazin-2-yl)methyl)(methyl)amino)cyclohexane-1-carboxylic acid]
- EC50: 105 nM
- Emax: 65%
